Laboratory results from publication PMC11288027, “Exploring novel microbial metabolites and drugs for inhibiting Clostridioides difficile” (mSphere, 2024).
Converted amounts (≈) assume the structure as drawn. “And” between values parts separate entries of the source, which are not always exact repeats. Identical values can stand only once. Counter-ions that a name gives are not always drawn. Like-named read-outs stand apart in the source and are kept apart here.

How the values were obtained:
Bif. angulatum = experiment: MIC against human gut microbiota; format: cell-based, Bifidobacterium angulatum; conditions: Bifidobacterium angulatum, read-out: minimum inhibitory concentration (MIC)
E. faecium = experiment: MIC against human gut microbiota; format: cell-based, Enterococcus faecium; conditions: Enterococcus faecium, read-out: minimum inhibitory concentration (MIC)
[1] = tested on: C. difficile ATCC BAA-1870; experiment: MIC of active hits by broth microdilution; conditions: C. difficile ATCC BAA-1870, 48 h anaerobic; for MIC: Clostridioides difficile, ATCCBAA1870, 48 h
L. rhamanosus = experiment: MIC against human gut microbiota; format: cell-based, Lactobacillus rhamnoosus; conditions: Lactobacillus
[2] = tested on: C. difficile clinical isolates; experiment: MIC against a panel of 20 C. difficile clinical isolates (broth microdilution); format: cell-based, Clostridioides difficile; conditions: Clostridioides difficile
L. casei = experiment: MIC against human gut microbiota; format: cell-based; conditions: Lacticaseibacillus casei
[3] = tested on: embryo development in mice; set-up: method as in PMID 19079959; conditions: cited from earlier work
Bif. longum = experiment: MIC against human gut microbiota; format: cell-based, Bifidobacterium longum; conditions: Bifidobacterium longum
E. fecalis = experiment: MIC against human gut microbiota; format: cell-based, Enterococcus faecalis; conditions: Enterococcus faecalis, read-out: minimum inhibitory concentration (MIC)
L. brevis = experiment: MIC against human gut microbiota; format: cell-based, Lactobacillus brevis; conditions: Levilactobacillus brevis
Bif. breve = experiment: MIC against human gut microbiota; format: cell-based, Bifidobacterium breve; conditions: Bifidobacterium breve
[4] = tested on: C. difficile ATCC BAA-1870; experiment: Time-kill assay at 5 × MIC; conditions: C. difficile ATCC BAA-1870, ~10^6 CFU/mL, up to 24 h
Bif. adolescentis = experiment: MIC against human gut microbiota; format: cell-based, Bifidobacterium adolescentis; conditions: Bifidobacterium adolescentis, read-out: minimum inhibitory concentration (MIC)
B. fragilis = experiment: MIC against human gut microbiota; format: cell-based, Bacteroides fragilis; conditions: for MIC: Bacteroides fragilis, read-out: minimum inhibitory concentration (MIC)
B. dorei = experiment: MIC against human gut microbiota; format: cell-based, Bacteroides dorei; conditions: Phocaeicola dorei, read-out: minimum inhibitory concentration (MIC)
Acinetobacter baumannii = tested on: Acinetobacter baumannii; set-up: method as in PMID 26414088; conditions: cited from earlier work
[5] = tested on: Staphylococcus epidermidis; set-up: method as in PMID 26414088; conditions: cited from earlier work
S. aureus = tested on: S. aureus; set-up: method as in PMID 26414088; conditions: cited from earlier work
mice = conditions: administered orally; cited from earlier work
[6] = B. fragilis HM- 718, BHIS broth, anaerobic

With `C[C@H](CCC(=O)O)C[C@H](C)C[C@H](C)C(=O)/C=C(\O)[C@H](C)C[C@H](C)C/C=C/[C@@H](C)[C@@H](O)[C@@H](C)[C@@H](O)C[C@@H]1CC[C@@](C)([C@H]2CC[C@@](C)([C@@H](C)O)O2)O1` [Ionomycin (calcium salt)] the MIC (Bif. angulatum) was 64 µg/mL, the MIC (E. faecium) was 32 µg/mL and the “MIC (μM)” value [1] was 4 µM. The MIC [1] was 2.99 µg/mL, the MIC (L. rhamanosus; ATCC53103, read-out: minimum inhibitory concentration (MIC)) was greater than 256 µg/mL and the MIC50 [2] was 1 µg/mL. The MIC90 [2] was 2 µg/mL, the MIC50 ([2]; 48 h) was 1 µg/mL and the MIC ([2]; ATCC630, read-out: minimum inhibitory concentration (MIC)) was 0.5 µg/mL. For the same compound, the MIC ([2]; ATCC43255, read-out: minimum inhibitory concentration (MIC)) was 1 µg/mL, the MIC ([2]; ATCCBAA1870, read-out: minimum inhibitory concentration (MIC)) was 1 µg/mL and the MIC (L. casei; ATCC334, read-out: minimum inhibitory concentration (MIC)) was 32 µg/mL. For the same compound, the “toxicity on embryo development” value [3] was “no toxicity”, the MIC (Bif. longum; read-out: minimum inhibitory concentration (MIC), Bif. longum HM- 845, BHIS broth, anaerobic) was greater than 256 µg/mL and the MIC (Bif. longum; read-out: minimum inhibitory concentration (MIC), Bif. longum HM- 846, BHIS broth, anaerobic) was 64 µg/mL. For the same compound, the MIC (Bif. longum; read-out: minimum inhibitory concentration (MIC), Bif. longum HM- 847, BHIS broth, anaerobic) was 128 µg/mL, the MIC (Bif. longum; read-out: minimum inhibitory concentration (MIC), Bif. longum HM- 848, BHIS broth, anaerobic) was 256 µg/mL and the MIC (E. fecalis) was 16 µg/mL. For the same compound, the MIC (L. brevis; ATCC14864, read-out: minimum inhibitory concentration (MIC)) was no less than 256 µg/mL, the MIC (Bif. breve; ATCC15700, read-out: minimum inhibitory concentration (MIC)) was greater than 256 µg/mL and the “time to bactericidal effect” value [4] was 8 h. For the same compound, the “time to eliminate / clear C. difficile” value [4] was 12 h, the MIC (Bif. adolescentis) was 16 µg/mL and the “minimum inhibitory concentration (MIC)” value (B. fragilis; [6]) was greater than 256 µg/mL. It also gave an MIC (B. fragilis) greater than 256 µg/mL and an MIC (B. dorei) greater than 256 µg/mL.

For `Oc1c(Br)cc(Br)c2cccnc12` [Broxyquinoline], the MIC (Bif. angulatum; Bif. angulatum HM- 1189, BHIS broth, anaerobic) is given as 8 µg/mL (≈ 26.4 µM), the MIC (Acinetobacter baumannii) is given as 12.5 µM and 4 µg/mL and the MIC (E. faecium; E. faecium HM-202, TSB, aerobic) is given as 32 µg/mL (≈ 106 µM). The MIC [5] was 12.5 µM and 4 µg/mL, the “MIC (μM)” value [1] was 4 µM and the MIC [1] was 1.21 µg/mL. For the same compound, the MIC (S. aureus) was 4 µg/mL (≈ 13.2 µM), the MIC (L. rhamanosus; ATCC53103, L. rhamanosus ATCC-53103, MRS broth, 5% CO2, read-out: minimum inhibitory concentration (MIC)) was greater than 256 µg/mL and the LD50 (mice) was 7400 mg/kg. For the same compound, the MIC50 ([2]; 48 h, concentration that inhibited 50% of the 20 C. difficile clinical isolates, read-out: MIC50) was 0.125 µg/mL (≈ 0.413 µM), the MIC ([2]; ATCC630, C. difficile ATCC 630, read-out: minimum inhibitory concentration (MIC)) was 1 µg/mL (≈ 3.3 µM) and the MIC ([2]; ATCC43255, C. difficile ATCC 43255, read-out: minimum inhibitory concentration (MIC)) was 0.25 µg/mL (≈ 0.825 µM). It also gave an MIC ([2]; ATCCBAA1870, C. difficile ATCC BAA-1870 (Ribotype-027), purchased compounds, panel test, read-out: minimum inhibitory concentration (MIC)) of 0.125 µg/mL (≈ 0.413 µM), an MIC ([2]; C. difficile CD-1 (Ribotype-027), read-out: minimum inhibitory concentration (MIC)) of 0.25 µg/mL (≈ 0.825 µM) and an MIC ([2]; C. difficile CD-6 (Ribotype-027), read-out: minimum inhibitory concentration (MIC)) of 0.25 µg/mL (≈ 0.825 µM). The MIC ([2]; C. difficile CD-10(Ribotype-027), read-out: minimum inhibitory concentration (MIC)) was 0.125 µg/mL (≈ 0.413 µM), the MIC ([2]; C. difficile CD-12, read-out: minimum inhibitory concentration (MIC)) was 0.125 µg/mL (≈ 0.413 µM) and the MIC ([2]; C. difficile CD-13, read-out: minimum inhibitory concentration (MIC)) was 0.03 µg/mL (≈ 0.099 µM). It also gave an MIC ([2]; C. difficile CD-15, read-out: minimum inhibitory concentration (MIC)) of 0.25 µg/mL (≈ 0.825 µM), an MIC ([2]; C. difficile CD-22, read-out: minimum inhibitory concentration (MIC)) of 0.125 µg/mL (≈ 0.413 µM) and an MIC ([2]; C. difficile CD-23, read-out: minimum inhibitory concentration (MIC)) of 0.125 µg/mL (≈ 0.413 µM). The MIC ([2]; C. difficile CD-24, read-out: minimum inhibitory concentration (MIC)) was 0.015 µg/mL (≈ 0.0495 µM), the MIC ([2]; C. difficile CD-26 (Ribotype-027), read-out: minimum inhibitory concentration (MIC)) was 0.125 µg/mL (≈ 0.413 µM) and the MIC ([2]; C. difficile CD-28, read-out: minimum inhibitory concentration (MIC)) was 0.06 µg/mL (≈ 0.198 µM). For the same compound, the MIC ([2]; C. difficile CD-29 (Ribotype-027), read-out: minimum inhibitory concentration (MIC)) was 0.06 µg/mL (≈ 0.198 µM), the MIC ([2]; C. difficile CD-30, read-out: minimum inhibitory concentration (MIC)) was 0.25 µg/mL (≈ 0.825 µM) and the MIC ([2]; C. difficile NR-49302, read-out: minimum inhibitory concentration (MIC)) was 0.06 µg/mL (≈ 0.198 µM). The MIC ([2]; C. difficile NR-49304, read-out: minimum inhibitory concentration (MIC)) was 0.03 µg/mL (≈ 0.099 µM), the MIC ([2]; C. difficile NR-49308, read-out: minimum inhibitory concentration (MIC)) was 0.06 µg/mL (≈ 0.198 µM) and the MIC ([2]; C. difficile NR-49319, read-out: minimum inhibitory concentration (MIC)) was 0.25 µg/mL (≈ 0.825 µM). For the same compound, the MIC50 ([2]; concentration that inhibited 50% of the 20 C. difficile clinical isolates, read-out: MIC50) was 0.125 µg/mL (≈ 0.413 µM), the MIC90 ([2]; concentration that inhibited 90% of the 20 C. difficile clinical isolates, read-out: MIC90) was 0.25 µg/mL (≈ 0.825 µM) and the MIC (L. casei; ATCC334, L. casei ATCC 334, MRS broth, 5% CO2, read-out: minimum inhibitory concentration (MIC)) was 32 µg/mL (≈ 106 µM). The MIC (Bif. longum; Bif. longum HM- 845, BHIS broth, anaerobic, read-out: minimum inhibitory concentration (MIC)) was greater than 256 µg/mL, the MIC (Bif. longum; Bif. longum HM- 846, BHIS broth, anaerobic, read-out: minimum inhibitory concentration (MIC)) was 128 µg/mL (≈ 423 µM) and the MIC (Bif. longum; Bif. longum HM- 847, BHIS broth, anaerobic, read-out: minimum inhibitory concentration (MIC)) was 32 µg/mL (≈ 106 µM). For the same compound, the MIC (Bif. longum; Bif. longum HM- 848, BHIS broth, anaerobic, read-out: minimum inhibitory concentration (MIC)) was 64 µg/mL (≈ 211 µM), the MIC (E. fecalis; E. fecalis HM-970, TSB, aerobic) was 16 µg/mL (≈ 52.8 µM) and the MIC (L. brevis; ATCC14864, L. brevis ATCC-14864, MRS broth, 5% CO2, read-out: minimum inhibitory concentration (MIC)) was 64 µg/mL (≈ 211 µM). For the same compound, the MIC (Bif. breve; ATCC15700, Bif. breve ATCC 15700, BHIS broth, anaerobic, read-out: minimum inhibitory concentration (MIC)) was greater than 256 µg/mL, the “time to eliminate / clear C. difficile” value [4] was 6 h and the MIC (Bif. adolescentis; Bif. adolescentis HM- 633, BHIS broth, anaerobic) was 64 µg/mL (≈ 211 µM). For the same compound, the MIC (B. fragilis; B. fragilis HM- 709, BHIS broth, anaerobic) was 8 µg/mL (≈ 26.4 µM), the MIC (B. fragilis; [6]) was 16 µg/mL (≈ 52.8 µM) and the MIC (B. dorei; B. dorei HM- 719, BHIS broth, anaerobic) was 8 µg/mL (≈ 26.4 µM).
